Source: US4515951A, “Preparation of 5,6,7,7a-tetrahydro-4H-thieno[3,2-c]pyridin-2-one compounds” (Sanofi, priority 1980, dated 1985)
Read-outs that look alike come from different tables or passages of the source.

What was measured:
[1] = tested on: platelet aggregation by ADP; assay: inhibiting action on platelet aggregation by ADP (ADP TEST), plasma of orally treated rats; format: in vivo, Wistar rats; conditions: Rattus norvegicus, read-out: Percentage inhibition of platelet aggregation (ADP test)
Procedure: (§1) A sample of blood is taken from the jugular vein of Wistar rats, which have previously been treated with the compound to be tested. From this blood, which is citrate-treated and centrifuged, there is reconstituted a plasma containing 600,000±20,000 platelets per mm^3, which is employed in all the aggregation measurements.
(§2) 0.4 ml. of plasma is treated in a siliconised tube provided with a bar magnet which is also siliconised. The tube is introduced into an aggregometer connected to an apparatus with which variations in optical density can be recorded. When the light transmission has reached a stable value, 0.5 ml. of a solution containing […] of ADP (adenosine diphosphate)is introduced into the tube.
(§3) Platelet aggregation then causes an increase in light transmission, followed by a reduction in light transmission due to the subsequent disaggregation stage.
(§4) The maximum variation in optical density thus determined relative to that of a plasma free of platelets characterises the intensity of aggregation.
(§5) The measurements are carried out during the 2 hours which follow the taking of the blood sample, this sample being taken 3 hours after treatment with the derivative to be tested.
(§6) Groups of 20 rats were used. Each group received a single dose of the compound to be tested, administered orally, the same compound being administered at different doses ranging from 5 mg./kg. to 100 mg./kg.
(§7) The results obtained are given in the following Tables II and III, which show the percentage inhibition of platelet aggregation obtained relative to the control experiment, 3 hours after treatment with the compound to be tested.

[2] = tested on: platelet aggregation by collagen; assay: inhibiting action on platelet aggregation by collagen (COLLAGEN TEST), plasma of orally treated rats; format: in vivo, Wistar rats; conditions: Rattus norvegicus, read-out: Percentage inhibition of platelet aggregation (collagen test)
Procedure: as §1, §2, §3, §4, §5
The ADP solution is replaced by a solution of collagen (extracted from cattle tendons).
as §6, §7

[3] = in vivo; conditions: mouse, iv
Description: This study was concerned with the acute, chronic, sub-chronic and delayed toxicities.

[4] = tested on: experimental thrombosis; assay: anti-thrombosis activity, experimental thrombosis caused by extracorporal circulation (Umetsu and Sonoi); format: in vivo, rats; conditions: control (5% gum arabic) 30.41
Procedure: This activity was studied by the experimental thrombosis method caused by extracorporal circulation, described by Umetsu and Sonoi (Thrombos. Haemost., 39, […]).
The left jugular vein and the right external carotid are exposed in rats anaesthetised by an intraperitoneal injection of pentobarbital. A shunt is provided which consists of a central catheter and two lateral catheters. A natural white silk thread is introduced into the central part and the circulation is restarted for 20 minutes. After stopping the circulation by clamping, the thread is gently withdrawn and weighed immediately.
Treatment was carried out for 48 hours, 24 hours and 2 hours before the start of the blood circulation in shunt.
The test compounds were administered orally to different groups of animals in the form of a suspension in 10 ml. of 5% gum arabic/kg., the doses used being 12.5 mg./kg., 25 mg./kg., 50 mg./kg., 100 mg./kg. and 200 mg./kg.

[5] = 5 mg/kg oral, single dose, 3 hours after treatment, relative to control
[6] = 12.5 mg/kg oral, single dose, 3 hours after treatment, relative to control
[7] = 25 mg/kg oral, single dose, 3 hours after treatment, relative to control
[8] = 50 mg/kg oral, single dose, 3 hours after treatment, relative to control
[9] = 100 mg/kg oral, single dose, 3 hours after treatment, relative to control

SMILES	inhibition at 5 mg/kg ([1]; po, 3 h) [%]	inhibition at 12.5 mg/kg ([1]; po, 3 h) [%]	inhibition at 25 mg/kg ([1]; po, 3 h) [%]	inhibition at 50 mg/kg ([1]; po, 3 h) [%]	inhibition at 100 mg/kg ([1]; po, 3 h) [%]	inhibition at 5 mg/kg ([2]; po, 3 h) [%]	inhibition at 12.5 mg/kg ([2]; po, 3 h) [%]	inhibition at 25 mg/kg ([2]; po, 3 h) [%]	inhibition at 50 mg/kg ([2]; po, 3 h) [%]	inhibition at 100 mg/kg ([2]; po, 3 h) [%]	LD50 at 24 h [3] [mg/kg]	inhibition at 5 mg/kg [1, 5] [%]	inhibition at 12.5 mg/kg [1, 6] [%]	inhibition at 25 mg/kg [1, 7] [%]	inhibition at 50 mg/kg [1, 8] [%]	inhibition at 100 mg/kg [1, 9] [%]	inhibition at 5 mg/kg [2, 5] [%]	inhibition at 12.5 mg/kg [2, 6] [%]	inhibition at 25 mg/kg [2, 7] [%]	inhibition at 50 mg/kg [2, 8] [%]	also measured
O=C1C=C2CN(Cc3ccccc3)CCC2S1 (centres unmarked) [Derivative 2, 5-Benzyl-5,6,7,7a-tetrahydro-4H-thieno[3,2-c]-pyridin-2-one]	47.8	82.6	82.9	83.7	83.7	16.5	44.2	85.8	87	87.8	116	–	–	–	–	–	–	–	–	–	–
O=C1C=C2CN(Cc3ccc(Cl)cc3)CCC2S1 (centres unmarked) [Derivative 3, 5-(p-Chlorobenzyl)-5,6,7,7a-tetrahydro-4H-thieno-[3,2-c]pyridin-2-one]	48.1	82.4	83	83.5	83.6	17.4	44.9	86.5	87.2	88.1	125	–	–	–	–	–	–	–	–	–	Average weight of the thrombi ([4]; 12.5 mg/kg oral, 48, 24 and 2 hours before): 26.72 mg; Average weight of the thrombi ([4]; 25 mg/kg oral, 48, 24 and 2 hours before): 12.04 mg; Average weight of the thrombi ([4]; 50 mg/kg oral, 48, 24 and 2 hours before): 5.96 mg; Average weight of the thrombi ([4]; 100 mg/kg oral, 48, 24 and 2 hours before): 4.62 mg
Cc1ccccc1CN1CCC2SC(=O)C=C2C1 (centres unmarked) [Derivative 4, 5-(o-Methylbenzyl)-5,6,7,7a-tetrahydro-4H-thieno-[3,2-c]pyridin-2-one]	48	81.9	82.1	82.8	82.9	17.1	45.2	85.9	88.1	88.2	110	–	–	–	–	–	–	–	–	–	–
CC(c1ccccc1Cl)N1CCC2SC(=O)C=C2C1 (centres unmarked) [Derivative 5, 5-[1-(2-Chlorophenyl)-ethyl]-5,6,7,7a-tetrahydro-4H-thieno[3,2-c]pyridin-2-one]	–	–	–	–	–	–	–	–	–	–	286	48.4	82	82.4	83.2	83.5	17	44.8	86.1	87.8	inhibition at 100 mg/kg [2, 9]: 88%
CCC(c1ccccc1Cl)N1CCC2SC(=O)C=C2C1 (centres unmarked) [Derivative 6, 5-[1-(2-Chlorophenyl)-propyl]-5,6,7,7a-tetrahydro-4H-thieno[3,2-c]pyridin-2-one]	–	–	–	–	–	–	–	–	–	–	121	48.7	83	83.4	83.9	83.9	16.8	44.4	85.7	89	inhibition at 100 mg/kg [2, 9]: 89.2%
